Measured values published in EP0005541A2, “Substituted piperidine, morpholine or piperidone derivatives, fungicides containing these compounds, process for their preparation and their use, and the use of these compounds as fungicides” (F. HOFFMANN-LA ROCHE & CO. Aktiengesellschaft, priority 1978, dated 1979).
In brackets after ≈: the same amount, converted by molar mass.

How the values were obtained:
[1] = tested on: Trichophyten mentagrophytes Stamm 109; experiment: Trichophyton mentagrophytes in vitro agar dilution test; assay type: cell-based; conditions: STAMM109, 168 h, minimal concentration fully preventing growth, tested at 100, 10, 1, 0,1, 0,01 mcg/ml, 7 days at 37°C, values mostly maximum values, true MHC may be lower, read-out: MHC (µg/ml) Trichophyton mentagr.
Experimental: Methode: Eine standardisierte Suspension der Hefeform von Konidien (Sporen) von Trichophyten mentagrophytes Stamm 109 (ca. das Fünfzigfache der zum Angehen der Kultur notwendigen geringsten Keimzahl) wird gleichzeitig mit geeigneten Präparatlösungen in verflüssigten und auf 50°C abgekühlten Agarnährboden nach Rowley und Huber eingegossen. Lösung der Präparate in Wasser oder Polyäthylenglykol (Carbowax 400). Präparate, die weder in Wasser noch in Polyäthylenglykol löslich sind, werden fein suspendiert. End- . konzentrationen der Präparate im Nährboden 100, 10, 1, 0,1 und 0,01 mcg/ml. Endkonzentration von Polyäthylenglykol 5%. 7 Tage Bebrütung bei 37°C.
(§1) Auswertung: Ablesung des Pilzwachstums mit blossem Auge.
(§2) Resultate: Angabe der minimalen Präparatkonzentration in mcg/ml, die das Wachstum des Pilzes vollständig verhindert (MHC). Die Resultate sind für einige Beispiele in der nachstehenden Tabelle II zusammengefasst.

Puccinia coronata = Puccinia coronata protective spray test on oat seedlings; assay type: in vivo; conditions: oat seedlings FLAEMINGSKRONE, infected 2 days after spraying, read on day 9 after infection vs infected untreated control
Experimental: 30-40 Haferkeimlinge der Sorte FLAEMINGSKRONE (verteilt auf 2 Töpfe mit 7 cm Durchmesser) wurden jeweils im Einblattstadium mit einer wässerigen Dispersion der Testsubstanz (wie allgemein üblich aufbereitet als Spritzpulver) allseitig gründlich besprüht und anschliessend in einer Klimakabine bei 17°C. 70-80% rel. Luftfeuchtigkeit und einer Photoperiode von 16 Stunden weiterkultiviert. Nach 2 Tagen erfolgte die Infektion der Versuchspflanzen durch Besprühen mit in dest. Wasser suspendierten Uredosporen (300'000 Sporen/ml) vor. Puccinia coronata. Danach wurden die Pflanzen während 24 Stunden bei 20°C und einer Luftfeuchtigkeit von über 90W im Dunkeln inkubiert und anschliessend in ein Gewächshaus mit einer Temperatur von 22-26 °C, einer rel. Luftfeuchtigkeit von 70% und einer Photoperiode von 18 Stunden übe führt. Am 9. Tage nach der Infektion wurde die durch Pucrinia coronata befallene Blattfläche in % gegenüber der infizierten, nicht behandelten Kontrolle ermittelt. Die ResLltate sind in Tabelle I zusammengefasst.

[2] = tested on: Histoplasma capsulatum Stamm Hist 2; experiment: microbe, parasite or virus in culture; assay type: cell-based; conditions: 288 h, read-out: MHC (µg/ml) Histoplasma capsulatum
[3] = tested on: Candida albicans Stamm H 29; experiment: Candida albicans in vitro agar dilution test; assay type: cell-based; conditions: STAMMH29, 168 h, minimal concentration fully preventing growth, tested at 100, 10, 1 mcg/ml, 7 days at 37°C, values mostly maximum values, true MHC may be lower
Experimental: Methode: Eine standardisierte Suspension der Hefeform von Candida albicans Stamm H 29 (ca. 300 Zellen/5 ml, das fünfzigfache der zum Angehen der Kultur notwendigen geringsten Keimzahl) wird gleichzeitig mit geeigneten Präparatlösungen in verflüssigten und auf 50°C abgekühlten Agarnährboden nach Rowley und Huber eingegossen. Lösung der Präparate in Wasser oder Polyäthylenglykol (Carbowax 400). Präparate, die weder in Wasser noch in Polyäthylenglykol löslich sind, werden fein suspendiert. Endkonzentrationen der Präparate im Nährboden 100, 10 und 1 mcg/ml. Endkonzentration von Polyäthylenglykol 5%. 7 Tage Bebrütung bei 37°C.
as §1, §2

Venturia inaequalis = Venturia inaequalis protective spray test on apple seedlings; assay type: in vivo; conditions: infected 2 days after spraying, read on day 13 after infection vs infected untreated control
Experimental: 3 Apfelpflänzchen (verteilt auf 3 Töpfe mit 5 cm Durchmesser) aus Samen der Sorte GOLDIN DELICIOUS wurden im 4- bis 5-Blattstadium mit einer wässerigen Dispersion der Testsubstanz (wie allgemein üblich aufbereitet als Spritzpulver) allseitig gründlich besprüht. Die behandelten Pflanzen wurden anschliessend während 2 Tagen bei 17°C, 70-80%rel. Luftfeuchtigkeit und einer Photoperiode von 14 Stunden weiterkultiviert. Danach erfolgte die Infektion der Apfelsämlinge durch Besprühen mit in dest. Wasser suspendierten Konidien (200'000 Konidien/ml) von Venturia inaequalis. Nach der Infektion wurden die Pflanzen im Dunkeln während 48 Stunden bei 16-18°C und einer rel. Luftfeuchtigkeit von über 90% inkubiert und anschliessend in ein schattiertes Gewächshaus mit einer Temperatur von 22-26 °C und einer rel. Luftfeuchtigkeit von über 80% überführt. Am 13. Tage nach der Infektion erfolgte die Ermittlung der durch Venturia inaequalis befallenen Blattfläche gegenüber der infizierten, nicht behandelten Kontrolle. Die Resultate sind in Tabelle II zusammengefasst.

Erysiphe graminis = Erysiphe graminis protective spray test on barley seedlings (greenhouse); assay type: in vivo; conditions: barley seedlings HERTA, infected 2 days after spraying, read 7 days after infection vs infected untreated control
Experimental: 30-40 Gerstenkeimlinge der Sorte HERTA (verteilt auf 2 Töpfe mit 7 cm Durchmesser) wurden jeweils im Einblattstadium mit einer wässerigen Dispersion der Testsubstanz (wie allgemein üblich aufbereitet als Spritzpulver) allseitig gründlich besprüht und anschliessend bei 22-26°C, 80% rel. Luftfeuchtigkeit und einer Photoperiode von 16 Stunden im Gewächshaus weiterkultiviert. Die Infektion erfolgte 2 Tage nach der Behandlung durch Bestäuben der Versuchspflanzen mit Kon dien von Erysiphe graminis. 7 Tage nach der Infektion wurde ::ie durch Erysiphe graminis befallene Blattfläche in % gegenüber derjenigen der infizierten, nicht behandelten Kontrolle ermittelt. Die Resultate sind in Tabelle I zusammengefasst.

| SMILES | MIC [1] [µg/mL] | Wirkung (in %) Puccinia coronata (Puccinia coronata; 5 mg/l Spritzbrühe) [%] | Wirkung (in %) Puccinia coronata (Puccinia coronata; 16 mg/l Spritzbrühe) [%] | Wirkung (in %) Puccinia coronata (Puccinia coronata; 50 mg/l Spritzbrühe) [%] | Wirkung (in %) Puccinia coronata (Puccinia coronata; 160 mg/l Spritzbrühe) [%] | Wirkung (in %) Puccinia coronata (Puccinia coronata; 500 mg/l Spritzbrühe) [%] | MIC [2] [µg/mL] | MIC [3] [µg/mL] | Wirkung (in %) Venturia inaequalis (Venturia inaequalis; 5 mg/l Spritzbrühe) [%] | Wirkung (in %) Venturia inaequalis (Venturia inaequalis; 16 mg/l Spritzbrühe) [%] | Wirkung (in %) Venturia inaequalis (Venturia inaequalis; 50 mg/l Spritzbrühe) [%] | Wirkung (in %) Venturia inaequalis (Venturia inaequalis; 160 mg/l Spritzbrühe) [%] | Wirkung (in %) Erysiphe graminis (Erysiphe graminis; 5 mg/l Spritzbrühe) [%] | Wirkung (in %) Erysiphe graminis (Erysiphe graminis; 16 mg/l Spritzbrühe) [%] | Wirkung (in %) Erysiphe graminis (Erysiphe graminis; 50 mg/l Spritzbrühe) [%] | Wirkung (in %) Erysiphe graminis (Erysiphe graminis; 160 mg/l Spritzbrühe) [%] | Wirkung (in %) Venturia inaequalis (Venturia inaequalis; 500 mg/l Spritzbrühe) [%] | Wirkung (in %) Erysiphe graminis (Erysiphe graminis; 500 mg/l Spritzbrühe) [%] |
| --- | --- | --- | --- | --- | --- | --- | --- | --- | --- | --- | --- | --- | --- | --- | --- | --- | --- | --- |
| CCC(C)(C)c1ccc(C(C)=C(C)CN2CCC(=O)CC2)cc1 [1-[3-(p-tert.-Amyl-phenyl)-2,3-dimethyl-2-propenyl]-4-piperidon] | 10 (≈ 31.9 µM) | 90 | 95 | 100 | 100 | 100 | 10 (≈ 31.9 µM) | 10 (≈ 31.9 µM) | 0 | 37 | 83 | 98 | 60 | 85 | 90 | 98 |  |  |
| CCC(C)(C)c1ccc(CC(C)CN2CCC(=O)CC2)cc1 (stereo not drawn) [1-[3-(p-tert.-Amyl-phenyl)-2-methyl-propyl]-4-piperidon] | 10 (≈ 33.2 µM) | 0 | 10 | 90 | 98 | 100 | 10 (≈ 33.2 µM) | 10 (≈ 33.2 µM) |  |  |  |  | 20 | 80 | 95 | 100 | 20 | 100 |
